According to ChEMBL document CHEMBL1201862, “PubChem BioAssay data set” (2004):
Blank lines part the entries; values can stand above or below the compound they belong to. The source made the active and inactive calls.

Columns and labels:
[1] = Luminescence Cell-Based Dose Retest to Confirm Inhibitors of Cancer Stem Cells. [Related pubchem assays (depositor defined):AID2717, AID2721]; format: functional; conditions: Homo sapiens
CAAX prenyl protease 2 = CAAX prenyl protease 2 (Homo sapiens, UniProt Q9Y256); experiment: human Rce1 protease inhibitors, dose response, biochemical, yeast membranes, quenched-peptide fluorescence, cherry-pick (AID 588849)
[2] = HEp-2 cell cytotoxicity, dose response, cytotoxicity control for RSV inhibitor project, HTS (AID 2410); format: functional; conditions: human respiratory syncytial virus
Trypsin = Trypsin (Sus scrofa, UniProt P00761); experiment: porcine trypsin inhibitors, dose response, selectivity assay for Rce1 protease inhibitor project, biochemical, quenched peptide fluorescence, cherry-pick (AID 488789)
Candida albicans [3] = experiment: reversal of fluconazole resistance in C. albicans, dose response, CaCi-2 strain, Alamar Blue, dry powder, set 3 (AID 488907); format: functional, organism-based
Candida albicans [4] = experiment: growth inhibition of resistant C. albicans, dose response, CaCi-8, fluconazole, Alamar Blue, dry powder (AID 488807); format: functional, organism-based
[5] = inhibitors of intracellular T. cruzi replication, confirmation, NIH3T3 host cells, beta-gal luminescence (AID 2044); format: functional, cell-based;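 also: intracellular parasites grown in NIH/3T3 mouse fibroblasts as host cells; luminescent beta-galactosidase reporter signal from transgenic T. cruzi replicating inside host cells; inhibitors lower the luminescence signal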
Candida albicans [6] = experiment: fluconazole resistance reversal in C. albicans, dose response, CaCi-2 strain, Alamar Blue, dry powder, set 4 (AID 488943); format: functional, organism-based
NIH3T3 = experiment: cytotoxicity in NIH-3T3 fibroblasts, dose response, cytotoxicity control for antifungal drug resistance project, cell-based, Alamar Blue, fluconazole, dry powder (AID 488809); format: functional; conditions: Mus musculus
Candida albicans [7] = experiment: growth inhibition of resistant C. albicans, dose response, CaCi-8 strain, fluconazole, dry powder, set 4 (AID 488950); format: functional, organism-based
[8] = cytotoxicity toward NIH3T3 fibroblasts, dose response, counter-screen, cell-based, ATP luminescence, mouse fibroblasts (AID 2010); format: functional;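 also: cells exposed to compound for about 90 hours before reading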
[9] = target: Tyrosine-protein phosphatase non-receptor type 7 (Homo sapiens, UniProt P35236); format: functional
[10] = target: Glyceraldehyde-3-phosphate dehydrogenase (Homo sapiens, UniProt P04406)
[11] = target: T1, Dual specificity protein phosphatase 6 (Rattus norvegicus, UniProt Q64346)
T1 sequence (Q64346 whole entry): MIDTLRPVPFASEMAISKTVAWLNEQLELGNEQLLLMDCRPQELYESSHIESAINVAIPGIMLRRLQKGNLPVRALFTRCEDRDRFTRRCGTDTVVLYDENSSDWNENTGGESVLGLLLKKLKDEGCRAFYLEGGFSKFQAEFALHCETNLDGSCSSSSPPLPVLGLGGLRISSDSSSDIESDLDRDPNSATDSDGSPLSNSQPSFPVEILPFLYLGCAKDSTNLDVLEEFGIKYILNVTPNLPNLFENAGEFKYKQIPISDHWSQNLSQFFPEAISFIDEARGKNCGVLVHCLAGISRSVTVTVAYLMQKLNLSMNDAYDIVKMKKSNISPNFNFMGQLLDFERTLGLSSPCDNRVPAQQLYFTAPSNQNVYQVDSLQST

[12] = target: T1, Dual specificity protein phosphatase 6; format: functional
[13] = cytotoxicity in MIN6 insulinoma cells, dose response, cytotoxicity control, cell-based, mouse insulinoma (AID 2122); format: functional;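 also: confirmatory high-throughput counterscreen run to flag cytotoxic compounds; mouse MIN-6 beta cells carrying an insulin promoter eGFP reporter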
[14] = insulin promoter down-regulators in MIN6 cells, imaging, high-content screening, mouse beta cells (AID 1628); format: functional
HEK293 [15] = experiment: SAR Analysis of small molecule inhibitors of T-cell specific antigen receptor-induced NF-kB activation in a HEK-293T cell line using a luminescence assay. [Related pubchem assays (depositor defined):AID435003, AID435012, AID489026]; format: functional, cell-based; conditions: Homo sapiens
Jurkat = experiment: SAR Analysis of small molecule inhibitors of T-cell specific antigen receptor-induced NF-kB activation in a Jurkat cell line using a luminescence assay. [Related pubchem assays (depositor defined):AID435003, AID435012, AID465]; format: functional, cell-based; conditions: Homo sapiens
HEK293 [16] = experiment: cytotoxicity in HEK293T NF-kB-Luc cells, SAR follow-up, cytotoxicity control for NF-kB activator project, cell-based, resazurin fluorescence (AID 493251); format: functional; conditions: Homo sapiens
Mu-type opioid receptor = Mu-type opioid receptor (Homo sapiens, UniProt P35372); experiment: (§1) Counterscreen for agonists of heterodimerization of the mu 1 (OPRM1) and delta 1 (OPRD1) opioid receptors: Luminescence-based cell-based high throughput dose response assay to identify agonists of OPRM1 homodimerization.; format: functional
[17] = target: 5-hydroxytryptamine receptor 5A (Homo sapiens, UniProt P47898); experiment: Counterscreen for agonists of OPRM1-OPRD1 heterodimerization: luminescence-based cell-based high throughput dose response assay to identify agonists of 5-hydroxytryptamine (serotonin) 5A receptor (HTR5A). [Related pubchem assays (depositor defined):AID504326, AID504355, AID504692, AID504904, AID504905]; format: functional
[18] = target: Delta-type opioid receptor (Homo sapiens, UniProt P41143); experiment: as §1, with “of OPRD1” for “of OPRM1”, “homodimerization. [Related pubchem assays (depositor defined):AID504326, AID504355, AID504692, AID504904, AID504905]” for “homodimerization.”; format: functional
Chain of Delta-type opioid receptor (P41143 whole entry): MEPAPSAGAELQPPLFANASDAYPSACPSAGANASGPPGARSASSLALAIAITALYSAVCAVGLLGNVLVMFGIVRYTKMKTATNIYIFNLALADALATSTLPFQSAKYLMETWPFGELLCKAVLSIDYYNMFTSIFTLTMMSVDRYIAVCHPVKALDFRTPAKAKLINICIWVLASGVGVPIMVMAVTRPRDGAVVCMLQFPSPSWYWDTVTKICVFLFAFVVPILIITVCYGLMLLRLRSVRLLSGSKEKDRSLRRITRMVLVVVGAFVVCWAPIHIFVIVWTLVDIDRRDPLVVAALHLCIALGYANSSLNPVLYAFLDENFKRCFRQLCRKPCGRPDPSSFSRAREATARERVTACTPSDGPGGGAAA

Chain of Trypsin (P00761 whole entry): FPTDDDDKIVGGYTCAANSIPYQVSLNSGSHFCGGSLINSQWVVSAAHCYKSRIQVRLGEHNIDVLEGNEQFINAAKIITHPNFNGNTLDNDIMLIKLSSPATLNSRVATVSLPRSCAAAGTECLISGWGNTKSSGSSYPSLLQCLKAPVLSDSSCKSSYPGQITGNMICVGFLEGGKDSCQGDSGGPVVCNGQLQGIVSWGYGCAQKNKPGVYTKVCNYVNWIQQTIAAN
Chain of 5-hydroxytryptamine receptor 5A (P47898 whole entry): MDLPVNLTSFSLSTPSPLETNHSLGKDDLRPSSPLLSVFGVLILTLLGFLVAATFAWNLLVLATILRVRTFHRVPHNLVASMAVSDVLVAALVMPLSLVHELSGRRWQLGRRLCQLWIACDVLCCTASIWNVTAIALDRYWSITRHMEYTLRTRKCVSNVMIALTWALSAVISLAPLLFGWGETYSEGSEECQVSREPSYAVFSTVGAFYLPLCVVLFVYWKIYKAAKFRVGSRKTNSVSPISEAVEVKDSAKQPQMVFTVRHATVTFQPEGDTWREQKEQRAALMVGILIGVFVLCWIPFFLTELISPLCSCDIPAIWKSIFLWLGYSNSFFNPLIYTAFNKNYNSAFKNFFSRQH
Chain of Tyrosine-protein phosphatase non-receptor type 7 (P35236 whole entry): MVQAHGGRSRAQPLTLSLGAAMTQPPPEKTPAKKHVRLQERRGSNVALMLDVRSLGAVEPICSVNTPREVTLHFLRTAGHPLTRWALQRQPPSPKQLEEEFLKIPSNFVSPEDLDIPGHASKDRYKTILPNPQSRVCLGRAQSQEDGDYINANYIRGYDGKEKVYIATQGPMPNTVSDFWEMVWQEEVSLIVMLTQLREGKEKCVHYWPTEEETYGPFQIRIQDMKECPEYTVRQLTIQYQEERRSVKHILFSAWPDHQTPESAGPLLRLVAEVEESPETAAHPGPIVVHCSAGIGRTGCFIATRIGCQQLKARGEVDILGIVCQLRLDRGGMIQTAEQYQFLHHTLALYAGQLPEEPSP
Chain of CAAX prenyl protease 2 (Q9Y256 whole entry): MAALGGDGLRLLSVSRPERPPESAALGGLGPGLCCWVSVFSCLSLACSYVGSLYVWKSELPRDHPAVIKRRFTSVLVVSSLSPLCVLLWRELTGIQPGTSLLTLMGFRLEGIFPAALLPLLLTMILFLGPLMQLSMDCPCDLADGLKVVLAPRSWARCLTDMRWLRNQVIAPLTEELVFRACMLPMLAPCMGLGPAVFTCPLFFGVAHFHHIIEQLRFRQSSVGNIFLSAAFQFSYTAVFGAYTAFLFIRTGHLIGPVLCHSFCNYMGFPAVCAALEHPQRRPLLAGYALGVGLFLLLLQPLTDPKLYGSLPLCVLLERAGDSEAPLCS
Chain of Mu-type opioid receptor (P35372 whole entry): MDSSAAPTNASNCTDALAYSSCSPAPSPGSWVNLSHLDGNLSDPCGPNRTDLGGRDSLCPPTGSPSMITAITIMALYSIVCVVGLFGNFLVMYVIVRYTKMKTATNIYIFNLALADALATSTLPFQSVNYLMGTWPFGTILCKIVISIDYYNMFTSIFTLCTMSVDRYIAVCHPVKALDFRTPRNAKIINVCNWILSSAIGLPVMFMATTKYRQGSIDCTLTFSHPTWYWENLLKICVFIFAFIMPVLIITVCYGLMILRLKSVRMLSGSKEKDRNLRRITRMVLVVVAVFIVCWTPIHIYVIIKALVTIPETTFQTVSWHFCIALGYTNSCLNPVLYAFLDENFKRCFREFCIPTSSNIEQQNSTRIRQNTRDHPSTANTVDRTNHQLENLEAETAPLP
Chain of Glyceraldehyde-3-phosphate dehydrogenase (P04406 whole entry): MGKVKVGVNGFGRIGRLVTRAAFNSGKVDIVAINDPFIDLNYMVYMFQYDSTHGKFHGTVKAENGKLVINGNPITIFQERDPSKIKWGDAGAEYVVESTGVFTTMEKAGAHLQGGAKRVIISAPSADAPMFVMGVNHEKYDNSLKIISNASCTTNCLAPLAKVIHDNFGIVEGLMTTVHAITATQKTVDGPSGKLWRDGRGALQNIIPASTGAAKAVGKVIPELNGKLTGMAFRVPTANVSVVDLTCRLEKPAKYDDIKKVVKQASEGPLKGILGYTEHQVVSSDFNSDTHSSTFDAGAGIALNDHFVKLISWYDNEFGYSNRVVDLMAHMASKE

SMILES: Cc1cccc(-c2oc3ccccc3c2C#CCCO)c1
AC50 [1]: 7.86 µM (active)
AC50 (CAAX prenyl protease 2): 32 µM (active)
IC50 (cells): 24.2 µM (active)
CC50 [2]: 19.5 µM (active)
AC50 (Trypsin): 3.96 µM (active)

SMILES: CC(C)C(=O)N1CCN(c2ccccn2)CC1
AC50 (Candida albicans [3]): 0.961 µM (active)

SMILES: O=C(Nc1ccc(C(F)(F)F)cc1)N1CCN(c2ccnc3cc(Cl)ccc23)CC1
AC50 (Candida albicans [4]): 0.404 µM (active)
EC50 [5]: 3.22 µM (active)
AC50 (Candida albicans [6]): 4.73 µM (active)
AC50 (NIH3T3): 7.27 µM (active)
AC50 (Candida albicans [7]): 9.05 µM (active)
EC50 [8]: > 60 µM (not active)

IC50 [9]: > 100 µM (not active)
IC50 [10]: > 100 µM (not active)
IC50 [11]: > 100 µM (inactive)
IC50 [12]: > 100 µM (inactive)
SMILES: NC(=O)[C@H](Cc1ccccc1)n1c(=O)n(Cc2ccc(Br)cc2)c(=O)n(-c2ccccc2)c1=O

SMILES: COc1ccc(OCC(O)Cn2c(=N)n(CCN3CCCCC3)c3ccccc32)cc1 (centres undefined)
IC50 [13]: 4.23 µM (active)
IC50 [14]: 2.41 µM (active)

SMILES: COc1cccc(C(=O)Nc2ccc3[nH]c(-c4cccc(OC)c4)cc(=O)c3c2)c1
IC50 (HEK293 [15]): > 79 µM (inactive)
IC50 (Jurkat): > 79 µM (inactive)
IC50 (HEK293 [16]): 42.2 µM (inactive)

EC50 (Mu-type opioid receptor): 42.8 µM (inactive)
EC50 [17]: > 92.5 µM (inactive)
EC50 [18]: > 92.5 µM (inactive)
SMILES: Cc1ccc(CSCC(=O)N/N=C/c2sccc2C)cc1
